Results published in the supplement of paper PMC10307832.

Columns and labels:
Experiment in all cases: relative viability (nuclei count vs DMSO), 5 days (fraction); higher = more cells survive
Apatinib + Pictilisib = compound: N#CC1(c2ccc(NC(=O)c3cccnc3NCc3ccncc3)cc2)CCCC1 [Apatinib] + CS(=O)(=O)N1CCN(Cc2cc3nc(-c4cccc5[nH]ncc45)nc(N4CCOCC4)c3s2)CC1 [Pictilisib] (partner 1 µM)
Method in brief: (§1)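 The day after seeding in 1536-well plates, lung cancer cell lines were treated by pin tool with a single drug, or with a fixed anchor-drug dose together with five library-drug doses (not always all listed) in √10 steps. After 5 days, a combined fix-and-stain solution (final 0.05% Triton X-100, 1% formaldehyde, 1 ug/ml Hoechst) was added. Nuclei counted on 4× images gave relative viability as treated counts over vehicle counts, reported as the median of duplicate plates.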

Metformin + Phenformin = compound: CN(C)C(=N)NC(=N)N [Metformin] + N=C(N)NC(=N)NCCc1ccccc1 [Phenformin] (partner 250 µM)
Method in brief: as §1

Apatinib + Trametinib = compound: N#CC1(c2ccc(NC(=O)c3cccnc3NCc3ccncc3)cc2)CCCC1 [Apatinib] + CC(=O)Nc1cccc(-n2c(=O)n(C3CC3)c(=O)c3c(Nc4ccc(I)cc4F)n(C)c(=O)c(C)c32)c1 [Trametinib] (partner 0.02 µM)
Method in brief: as §1

Apatinib + Vorinostat = compound: N#CC1(c2ccc(NC(=O)c3cccnc3NCc3ccncc3)cc2)CCCC1 [Apatinib] + O=C(CCCCCCC(=O)Nc1ccccc1)NO [Vorinostat] (partner 1 µM)
Method in brief: as §1

| Cell Line | relative viability (Apatinib + Pictilisib; first compound 0.08 µM) | relative viability (Apatinib + Pictilisib; first compound 0.253 µM) | relative viability (Apatinib + Pictilisib; first compound 0.8 µM) | relative viability (Apatinib + Pictilisib; first compound 2.53 µM) | relative viability (Apatinib + Pictilisib; first compound 8 µM) | relative viability (Metformin + Phenformin; first compound 10 µM) | relative viability (Metformin + Phenformin; first compound 31.62 µM) | relative viability (Metformin + Phenformin; first compound 100 µM) | relative viability (Metformin + Phenformin; first compound 316.23 µM) | relative viability (Metformin + Phenformin; first compound 1000 µM) | relative viability (Apatinib + Trametinib; first compound 0.253 µM) | relative viability (Apatinib + Trametinib; first compound 0.8 µM) | relative viability (Apatinib + Trametinib; first compound 2.53 µM) | relative viability (Apatinib + Trametinib; first compound 8 µM) | relative viability (Apatinib + Vorinostat; first compound 0.253 µM) | relative viability (Apatinib + Vorinostat; first compound 0.8 µM) | relative viability (Apatinib + Vorinostat; first compound 2.53 µM) | relative viability (Apatinib + Vorinostat; first compound 8 µM) | relative viability (Apatinib + Trametinib; first compound 0.08 µM) | relative viability (Apatinib + Vorinostat; first compound 0.08 µM) |
| --- | --- | --- | --- | --- | --- | --- | --- | --- | --- | --- | --- | --- | --- | --- | --- | --- | --- | --- | --- | --- |
| EMC-BAC-2 | 0.561 | 0.593 | 0.572 | 0.516 | 0.527 | 0.592 | 0.519 | 0.506 | 0.499 | 0.651 | 0.869 | 0.887 | 0.818 | 0.799 | 0.51 | 0.432 | 0.29 | 0.362 | – | – |
| EPLC-272H | 0.351 | 0.331 | 0.357 | 0.324 | 0.349 | 0.333 | 0.369 | 0.381 | 0.262 | 0.304 | 0.264 | 0.301 | 0.321 | 0.234 | 0.372 | 0.396 | 0.346 | 0.256 | 0.297 | 0.532 |
| H3255 | 0.448 | 0.454 | 0.388 | 0.436 | 0.447 | 0.395 | 0.365 | 0.436 | 0.338 | 0.382 | 0.588 | 0.669 | 0.597 | 0.535 | 0.737 | 0.764 | 0.74 | 0.794 | 0.655 | 0.768 |
| HARA | 0.447 | 0.491 | 0.494 | 0.435 | 0.307 | – | 0.459 | 0.518 | 0.493 | 0.591 | 0.829 | 0.673 | – | 0.6 | 0.556 | 0.523 | – | 0.51 | 0.736 | 0.599 |
| HCC-15 | 0.77 | 0.786 | 0.693 | 0.706 | 0.71 | – | 0.495 | 0.464 | 0.426 | 0.491 | 0.295 | 0.327 | 0.367 | 0.308 | 0.876 | 0.871 | 0.887 | 0.706 | 0.393 | 0.9 |
| HCC-44 | 0.639 | 0.686 | 0.584 | 0.548 | 0.659 | 0.236 | 0.35 | 0.298 | 0.223 | 0.166 | 0.993 | 1.07 | 1.09 | 0.811 | 1.07 | 1.08 | 1.01 | 0.934 | 1.08 | 1.07 |
| HCC-78 | 0.299 | 0.158 | 0.236 | 0.221 | 0.205 | 0.685 | 0.716 | 0.627 | 0.651 | 0.782 | 0.683 | 0.781 | 0.651 | 0.61 | 0.396 | 0.427 | 0.402 | 0.374 | 0.717 | 0.524 |
| HCC-366 | 0.22 | 0.184 | 0.183 | 0.129 | 0.111 | 0.403 | 0.679 | 0.616 | 0.644 | 0.734 | 0.393 | 0.369 | 0.314 | 0.273 | 0.386 | 0.329 | 0.205 | 0.193 | 0.336 | 0.437 |
| HCC-827 | 1.04 | 0.867 | 0.806 | 0.777 | 1.01 | – | 0.412 | 0.376 | 0.365 | 0.373 | 0.533 | 0.492 | 0.519 | 0.425 | 0.777 | 0.817 | 0.654 | 0.855 | 0.525 | 0.859 |
